# Laboratory results from ChEMBL document CHEMBL1137339, “Improved therapeutic efficacy of doxorubicin through conjugation with a novel peptide drug delivery technology (Vectocell)” (J Med Chem, 2006).
# Starred links: 1 amine or outer side, 2 acyl side, 3 side chain; linkers in the order of their positions; H or OH if unused. Non-standard residues stand in square brackets, D forms with d. Residues, ends and D or L forms follow the SMILES beside them. ξ: configuration not given here. *: point of attachment. X1 = COc1cccc2c1C(=O)c1c(O)c3c(c(O)c1C2=O)C[C@@](O)(C(=O)COC(=O)CCCN1C(=O)CC(*)C1=O)C[C@@H]3O[C@H]1C[C@H](N)[C@H](O)[C@H](C)O1; X4 = COc1cccc2c1C(=O)c1c(O)c3c(c(O)c1C2=O)C[C@@](O)(C(=O)CO)C[C@@H]3O[C@H]1C[C@H](NC(=O)CCCN2C(=O)CC(*)C2=O)[C@H](O)[C@H](C)O1; X2 = COc1cccc2c1C(=O)c1c(O)c3c(c(O)c1C2=O)C[C@@](O)(C(=O)C*)CC3O[C@H]1C[C@H](N)[C@H](O)[C@H](C)O1; X3 = COc1cccc2c1Cc1cc3c(cc1C2)C[C@@](O)(C(=O)CSCN*)C[C@@H]3O[C@H]1C[C@H](N)[C@H](O)[C@H](C)O1; CO = O=C([*:1])[*:2]; ξC = NC(CS)C(=O)O
# Legend:
# HCT-15 [1] = test: Cytotoxicity against HCT15 cell line by WST1 assay; type: functional, cell-based; settings: Homo sapiens
# MES-SA/Dx5 [2] = test: Cytotoxicity against MES-SA/dx5 cell line by WST1 assay; type: functional, cell-based; settings: Homo sapiens
# HCT-116 [3] = test: Cytotoxicity against doxorubicin-sensitive HCT116 cell line in presence of verapamil by WST1 assay; type: functional, cell-based; settings: Homo sapiens
# HCT-15 [4] = test: Cytotoxicity against doxorubicin-resistant HCT15 cell line in presence of verapamil by WST1 assay; type: functional, cell-based; settings: Homo sapiens
# NCI/ADR-RES [5] = test: Cytotoxicity against doxorubicin-resistant MCF7/Adr cell line in presence of verapamil by WST1 assay; type: functional, cell-based; settings: Homo sapiens
# MES-SA/Dx5 [6] = test: Cytotoxicity against doxorubicin-resistant MES-SA/dx5 cell line in presence of verapamil by WST1 assay; type: functional, cell-based; settings: Homo sapiens
# HCT-116 [7] = test: Cytotoxicity against doxorubicin-sensitive HCT116 cell line by WST1 assay; type: functional, cell-based; settings: Homo sapiens
# MCF7 = test: Cytotoxicity against doxorubicin-sensitive MCF7/6 cell line by WST1 assay; type: functional, cell-based; settings: Homo sapiens
# NCI/ADR-RES [8] = test: Cytotoxicity against doxorubicin-resistant MCF7/Adr cell line by WST1 assay; type: functional, cell-based; settings: Homo sapiens
# MDA-MB-231 [9] = test: Cytotoxicity against MDA-MB-231 cell line xenografted in NMRI nu/nu mouse at 6 umol/kg relative to control; type: functional, Homo sapiens
# HCT-116 [10] = test: Cytotoxicity against HCT116 cell line xenografted in NMRI nu/nu mouse at 15 umol/kg relative to control; type: functional, Homo sapiens
# MDA-MB-231 [11] = test: Cytotoxicity against MDA-MB-231 cell line xenografted in NMRI nu/nu mouse at 8 umol/kg relative to control; type: functional, Homo sapiens
# MDA-MB-231 [12] = test: Cytotoxicity against MDA-MB-231 cell line xenografted in NMRI nu/nu mouse at 10 umol/kg relative to control; type: functional, Homo sapiens
# HCT-116 [13] = test: Cytotoxicity against HCT116 cell line xenografted in NMRI nu/nu mouse at 10 umol/kg relative to control; type: functional, Homo sapiens
# HCT-116 [14] = test: Cytotoxicity against HCT116 cell line xenografted in NMRI nu/nu mouse at 6.5 umol/kg relative to control; type: functional, Homo sapiens
Compound,IC50 (HCT-116 [7]) [µM],IC50 (MCF7) [µM],IC50 (NCI/ADR-RES [8]) [µM],Activity (HCT-116 [10]) [%],also measured
COc1cccc2c1C(=O)c1c(O)c3c(c(O)c1C2=O)C[C@@](O)(C(=O)COC(=O)CCCN1C(=O)CC(SC[C@H](N)C(=O)N[C@H](C(=O)N[C@@H](CCCCN)C(=O)N[C@@H](CCCN=C(N)N)C(=O)NCC(=O)N[C@@H](CC(C)C)C(=O)N[C@@H](CCCCN)C(=O)N[C@@H](CC(C)C)C(=O)N[C@@H](CCCN=C(N)N)C(=O)N[C@@H](Cc2c[nH]cn2)C(=O)N[C@H](C(=O)N[C@@H](CCCN=C(N)N)C(=O)N2CCC[C@H]2C(=O)N[C@@H](CCCN=C(N)N)C(=O)N[C@H](C(=O)N[C@H](C(=O)N[C@@H](CCCN=C(N)N)C(=O)N[C@@H](CCSC)C(=O)N[C@@H](CC(=O)O)C(=O)N[C@H](C(=O)O)C(C)C)[C@@H](C)O)C(C)C)C(C)C)C(C)C)C1=O)C[C@@H]3O[C@H]1C[C@H](N)[C@H](O)[C@H](C)O1 (stereo partly specified) (H-C(X1)VKRGLKLRHVRPRVTRMDV-OH),6,29,133,,IC50 (HCT-15 [1]): 50 µM; IC50 (MES-SA/Dx5 [2]): 81 µM; IC50 (HCT-116 [3]): 4 µM; IC50 (HCT-15 [4]): 11 µM; IC50 (NCI/ADR-RES [5]): 52 µM; IC50 (MES-SA/Dx5 [6]): 22 µM
COc1cccc2c1C(=O)c1c(O)c3c(c(O)c1C2=O)C[C@@](O)(C(=O)CO)C[C@@H]3O[C@H]1C[C@H](NC(=O)CCCN2C(=O)CC(SC[C@H](N)C(=O)N[C@H](C(=O)N[C@@H](CCCCN)C(=O)N[C@@H](CCCN=C(N)N)C(=O)NCC(=O)N[C@@H](CC(C)C)C(=O)N[C@@H](CCCCN)C(=O)N[C@@H](CC(C)C)C(=O)N[C@@H](CCCN=C(N)N)C(=O)N[C@@H](Cc3c[nH]cn3)C(=O)N[C@H](C(=O)N[C@@H](CCCN=C(N)N)C(=O)N3CCC[C@H]3C(=O)N[C@@H](CCCN=C(N)N)C(=O)N[C@H](C(=O)N[C@H](C(=O)N[C@@H](CCCN=C(N)N)C(=O)N[C@@H](CCSC)C(=O)N[C@@H](CC(=O)O)C(=O)N[C@H](C(=O)O)C(C)C)[C@@H](C)O)C(C)C)C(C)C)C(C)C)C2=O)[C@H](O)[C@H](C)O1 (stereo partly specified) (H-C(X4)VKRGLKLRHVRPRVTRMDV-OH),,108,500,,
COc1cccc2c1C(=O)c1c(O)c3c(c(O)c1C2=O)C[C@@](O)(C(=O)COC(=O)CCCN1C(=O)CC(SC[C@H](N)C(=O)N[C@H](C(=O)N[C@@H](CCCCN)C(=O)N[C@@H](CCCN=C(N)N)C(=O)NCC(=O)N[C@@H](CC(C)C)C(=O)N[C@@H](CCCCN)C(=O)N[C@@H](CC(C)C)C(=O)N[C@@H](CCCN=C(N)N)C(=O)N[C@@H](Cc2c[nH]cn2)C(=O)N[C@H](C(=O)N[C@@H](CCCN=C(N)N)C(=O)N2CCC[C@H]2C(=O)N[C@@H](CCCN=C(N)N)C(=O)N[C@H](C(=O)N[C@H](C(=O)N[C@@H](CCCN=C(N)N)C(=O)N[C@@H](CCSC)C(=O)N[C@@H](CC(=O)O)C(=O)N[C@H](C(=O)O)C(C)C)[C@@H](C)O)C(C)C)C(C)C)C(C)C)C1=O)C[C@@H]3O[C@H]1C[C@H](N)[C@H](O)[C@H](C)O1.O=C(O)C(F)(F)F (stereo partly specified) (H-C(X1)VKRGLKLRHVRPRVTRMDV-OH),,,,29.5,Activity (MDA-MB-231 [9]): 43.4%; Activity (MDA-MB-231 [11]): 27.6%; Activity (MDA-MB-231 [12]): 16.4%
COc1cccc2c1C(=O)c1c(O)c3c(c(O)c1C2=O)C[C@@](O)(C(=O)CO)C[C@@H]3O[C@H]1C[C@H](NC(=O)CCCN2C(=O)CC(SC[C@H](N)C(=O)N[C@H](C(=O)N[C@@H](CCCCN)C(=O)N[C@@H](CCCN=C(N)N)C(=O)NCC(=O)N[C@@H](CC(C)C)C(=O)N[C@@H](CCCCN)C(=O)N[C@@H](CC(C)C)C(=O)N[C@@H](CCCN=C(N)N)C(=O)N[C@@H](Cc3c[nH]cn3)C(=O)N[C@H](C(=O)N[C@@H](CCCN=C(N)N)C(=O)N3CCC[C@H]3C(=O)N[C@@H](CCCN=C(N)N)C(=O)N[C@H](C(=O)N[C@H](C(=O)N[C@@H](CCCN=C(N)N)C(=O)N[C@@H](CCSC)C(=O)N[C@@H](CC(=O)O)C(=O)N[C@H](C(=O)O)C(C)C)[C@@H](C)O)C(C)C)C(C)C)C(C)C)C2=O)[C@H](O)[C@H](C)O1.O=C(O)C(F)(F)F (stereo partly specified) (H-C(X4)VKRGLKLRHVRPRVTRMDV-OH),,,,79.7,
H-CVKRGLKLRHVRPRVTRMDV-OH,> 1000,,> 1000,,
COc1cccc2c1C(=O)c1c(O)c3c(c(O)c1C2=O)C[C@@](O)(C(=O)COC(=O)CCCN1C(=O)CC(SCC(N)C(=O)NCC(=O)N[C@@H](CCCCN)C(=O)N[C@@H](CCCN=C(N)N)C(=O)N[C@@H](CCCCN)C(=O)N[C@@H](CCCCN)C(=O)N[C@@H](CCCCN)C(=O)NCC(=O)N[C@@H](CCCCN)C(=O)N[C@@H](CC(C)C)C(=O)NCC(=O)N[C@@H](CCCCN)C(=O)N[C@@H](CCCCN)C(=O)N[C@@H](CCCN=C(N)N)C(=O)N2CCC[C@H]2C(=O)N[C@@H](CCCN=C(N)N)C(=O)N[C@@H](CO)C(=O)N[C@@H](CCCN=C(N)N)C(=O)N[C@@H](CS)C(=O)O)C1=O)C[C@@H]3O[C@H]1C[C@H](N)[C@H](O)[C@H](C)O1.O=C(O)C(F)(F)F (stereo partly specified) (H-[ξC](X1)GKRKKKGKLGKKRPRSRC-OH),5,10,> 1000,34.1,
COc1cccc2c1C(=O)c1c(O)c3c(c(O)c1C2=O)C[C@@](O)(C(=O)COC(=O)CCCN1C(=O)CC(SCC(N)C(=O)N[C@@H](CO)C(=O)N[C@@H](CCCN=C(N)N)C(=O)N[C@@H](CCCN=C(N)N)C(=O)N[C@@H](C)C(=O)N[C@@H](CCCN=C(N)N)C(=O)N[C@@H](CCCN=C(N)N)C(=O)N[C@@H](CO)C(=O)N2CCC[C@H]2C(=O)N[C@@H](CCCN=C(N)N)C(=O)N[C@@H](Cc2c[nH]cn2)C(=O)N[C@@H](CC(C)C)C(=O)NCC(=O)N[C@@H](CO)C(=O)NCC(=O)N[C@@H](CS)C(=O)O)C1=O)C[C@@H]3O[C@H]1C[C@H](N)[C@H](O)[C@H](C)O1.O=C(O)C(F)(F)F (stereo partly specified) (H-[ξC](X1)SRRARRSPRHLGSGC-OH),2,9,532,39,
COc1cccc2c1Cc1cc3c(cc1C2)C[C@@](O)(C(=O)CSCNC(=O)NCC(=O)N[C@@H](CCCCN)C(=O)N[C@@H](CCCN=C(N)N)C(=O)N[C@@H](CCCCN)C(=O)N[C@@H](CCCCN)C(=O)N[C@@H](CCCCN)C(=O)NCC(=O)N[C@@H](CCCCN)C(=O)N[C@@H](CC(C)C)C(=O)NCC(=O)N[C@@H](CCCCN)C(=O)N[C@@H](CCCCN)C(=O)N[C@@H](CCCN=C(N)N)C(=O)N1CCC[C@H]1C(=O)N[C@@H](CCCN=C(N)N)C(=O)N[C@@H](CO)C(=O)N[C@@H](CCCN=C(N)N)C(=O)N[C@@H](CS)C(=O)O)C[C@@H]3O[C@H]1C[C@H](N)[C@H](O)[C@H](C)O1.O=C(O)C(F)(F)F ({X3-CO}-GKRKKKGKLGKKRPRSRC-OH),30,17,862,,Activity (HCT-116 [13]): 86.2%
COc1cccc2c1C(=O)c1c(O)c3c(c(O)c1C2=O)C[C@@](O)(C(=O)CO)C[C@@H]3O[C@H]1C[C@H](NC(=O)CCCN2C(=O)CC(SCC(N)C(=O)N[C@@H](CO)C(=O)N[C@@H](CCCN=C(N)N)C(=O)N[C@@H](CCCN=C(N)N)C(=O)N[C@@H](C)C(=O)N[C@@H](CCCN=C(N)N)C(=O)N[C@@H](CCCN=C(N)N)C(=O)N[C@@H](CO)C(=O)N3CCC[C@H]3C(=O)N[C@@H](CCCN=C(N)N)C(=O)N[C@@H](Cc3c[nH]cn3)C(=O)N[C@@H](CC(C)C)C(=O)NCC(=O)N[C@@H](CO)C(=O)NCC(=O)N[C@@H](CS)C(=O)O)C2=O)[C@H](O)[C@H](C)O1 (stereo partly specified) (H-[ξC](X4)SRRARRSPRHLGSGC-OH),200,114,625,,
COc1cccc2c1C(=O)c1c(O)c3c(c(O)c1C2=O)C[C@@](O)(C(=O)CSCC(N)C(=O)N[C@@H](CO)C(=O)N[C@@H](CCCN=C(N)N)C(=O)N[C@@H](CCCN=C(N)N)C(=O)N[C@@H](C)C(=O)N[C@@H](CCCN=C(N)N)C(=O)N[C@@H](CCCN=C(N)N)C(=O)N[C@@H](CO)C(=O)N1CCC[C@H]1C(=O)N[C@@H](CCCN=C(N)N)C(=O)N[C@@H](Cc1c[nH]cn1)C(=O)N[C@@H](CC(C)C)C(=O)NCC(=O)N[C@@H](CO)C(=O)NCC(=O)N[C@@H](CS)C(=O)O)CC3O[C@H]1C[C@H](N)[C@H](O)[C@H](C)O1.O=C(O)C(F)(F)F (stereo partly specified) (H-[ξC](X2)SRRARRSPRHLGSGC-OH),153,37,121,,Activity (HCT-116 [13]): 55.8%
COc1cccc2c1C(=O)c1c(O)c3c(c(O)c1C2=O)C[C@@](O)(C(=O)CO)C[C@@H]3O[C@H]1C[C@H](N)[C@H](O)[C@H](C)O1.O=C(O)C(F)(F)F [DOXORUBICIN TRIFLUOROACETATE],3,,> 1000,,IC50 (HCT-15 [1]): 283 µM; IC50 (MES-SA/Dx5 [2]): 600 µM; IC50 (HCT-116 [3]): 2 µM; IC50 (HCT-15 [4]): 20 µM; IC50 (NCI/ADR-RES [5]): 30 µM; IC50 (MES-SA/Dx5 [6]): 21 µM; Activity (HCT-116 [14]): 49.6%
